The values that follow come from ChEMBL document CHEMBL1201862, “PubChem BioAssay data set” (2004).

As a reminder, the IC50 is the point on the concentration scale where inhibition reaches its midpoint. As usually defined, the AC50 is the midpoint of the concentration-response curve, whichever way the signal moves. Broadly, the EC50 is the concentration giving half of the maximal effect.

Test [1] addresses Glucose-6-phosphate 1-dehydrogenase (Homo sapiens, UniProt P11413). Nature of the test: inhibition of Homo sapiens G6PD, dose series – biochemical, fluorescence, selectivity assay for P. falciparum G6PD inhibitor project, dose response (AID 504792). Format: functional.
Test [2] concerns the target Genome polyprotein (dengue virus type 2, UniProt P29990). Nature of the test: flavivirus cap methylation enzyme inhibition – biochemical, confirmation dose response, primary screen (AID 588689). Type of test: functional.
Test [3] has as its target T1, Protein skinhead-1 (Caenorhabditis elegans, UniProt P34707).
T1 sequence (P34707 whole entry): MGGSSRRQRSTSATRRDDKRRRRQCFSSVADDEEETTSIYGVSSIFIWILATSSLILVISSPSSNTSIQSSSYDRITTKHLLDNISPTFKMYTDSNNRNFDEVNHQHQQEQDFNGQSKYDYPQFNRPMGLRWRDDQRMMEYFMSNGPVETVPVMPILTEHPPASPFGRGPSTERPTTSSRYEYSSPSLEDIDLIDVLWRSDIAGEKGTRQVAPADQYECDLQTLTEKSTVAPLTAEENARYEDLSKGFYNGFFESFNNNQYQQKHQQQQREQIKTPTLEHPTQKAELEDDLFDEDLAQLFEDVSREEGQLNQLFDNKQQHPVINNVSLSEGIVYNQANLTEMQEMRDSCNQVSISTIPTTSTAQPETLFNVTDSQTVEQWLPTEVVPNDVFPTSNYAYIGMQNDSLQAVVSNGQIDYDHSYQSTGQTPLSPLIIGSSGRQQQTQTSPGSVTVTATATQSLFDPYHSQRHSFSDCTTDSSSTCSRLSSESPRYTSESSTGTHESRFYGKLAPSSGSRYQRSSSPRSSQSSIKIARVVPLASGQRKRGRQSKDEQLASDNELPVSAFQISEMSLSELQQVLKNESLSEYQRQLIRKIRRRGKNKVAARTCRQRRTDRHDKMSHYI
Type of test: functional.

For test [4], the target named is T2, Caspase-6 (Homo sapiens, UniProt P55212).
T2 sequence (P55212 whole entry): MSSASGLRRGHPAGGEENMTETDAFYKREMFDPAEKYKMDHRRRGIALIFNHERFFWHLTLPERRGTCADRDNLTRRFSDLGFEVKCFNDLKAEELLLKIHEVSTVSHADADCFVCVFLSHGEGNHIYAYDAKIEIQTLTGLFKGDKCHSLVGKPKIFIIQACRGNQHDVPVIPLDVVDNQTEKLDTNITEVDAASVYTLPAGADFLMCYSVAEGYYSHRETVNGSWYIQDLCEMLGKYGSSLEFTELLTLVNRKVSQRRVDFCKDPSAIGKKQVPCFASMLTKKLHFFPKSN
The test is described as follows: inhibition of CASP6 peptide cleavage – biochemical, VEID-R110 fluorescence, cherry-pick, dose response (AID 720632).

Test [5] deals with T3, Histone-lysine N-methyltransferase NSD2 (Homo sapiens, UniProt O96028).
T3 sequence (O96028 whole entry): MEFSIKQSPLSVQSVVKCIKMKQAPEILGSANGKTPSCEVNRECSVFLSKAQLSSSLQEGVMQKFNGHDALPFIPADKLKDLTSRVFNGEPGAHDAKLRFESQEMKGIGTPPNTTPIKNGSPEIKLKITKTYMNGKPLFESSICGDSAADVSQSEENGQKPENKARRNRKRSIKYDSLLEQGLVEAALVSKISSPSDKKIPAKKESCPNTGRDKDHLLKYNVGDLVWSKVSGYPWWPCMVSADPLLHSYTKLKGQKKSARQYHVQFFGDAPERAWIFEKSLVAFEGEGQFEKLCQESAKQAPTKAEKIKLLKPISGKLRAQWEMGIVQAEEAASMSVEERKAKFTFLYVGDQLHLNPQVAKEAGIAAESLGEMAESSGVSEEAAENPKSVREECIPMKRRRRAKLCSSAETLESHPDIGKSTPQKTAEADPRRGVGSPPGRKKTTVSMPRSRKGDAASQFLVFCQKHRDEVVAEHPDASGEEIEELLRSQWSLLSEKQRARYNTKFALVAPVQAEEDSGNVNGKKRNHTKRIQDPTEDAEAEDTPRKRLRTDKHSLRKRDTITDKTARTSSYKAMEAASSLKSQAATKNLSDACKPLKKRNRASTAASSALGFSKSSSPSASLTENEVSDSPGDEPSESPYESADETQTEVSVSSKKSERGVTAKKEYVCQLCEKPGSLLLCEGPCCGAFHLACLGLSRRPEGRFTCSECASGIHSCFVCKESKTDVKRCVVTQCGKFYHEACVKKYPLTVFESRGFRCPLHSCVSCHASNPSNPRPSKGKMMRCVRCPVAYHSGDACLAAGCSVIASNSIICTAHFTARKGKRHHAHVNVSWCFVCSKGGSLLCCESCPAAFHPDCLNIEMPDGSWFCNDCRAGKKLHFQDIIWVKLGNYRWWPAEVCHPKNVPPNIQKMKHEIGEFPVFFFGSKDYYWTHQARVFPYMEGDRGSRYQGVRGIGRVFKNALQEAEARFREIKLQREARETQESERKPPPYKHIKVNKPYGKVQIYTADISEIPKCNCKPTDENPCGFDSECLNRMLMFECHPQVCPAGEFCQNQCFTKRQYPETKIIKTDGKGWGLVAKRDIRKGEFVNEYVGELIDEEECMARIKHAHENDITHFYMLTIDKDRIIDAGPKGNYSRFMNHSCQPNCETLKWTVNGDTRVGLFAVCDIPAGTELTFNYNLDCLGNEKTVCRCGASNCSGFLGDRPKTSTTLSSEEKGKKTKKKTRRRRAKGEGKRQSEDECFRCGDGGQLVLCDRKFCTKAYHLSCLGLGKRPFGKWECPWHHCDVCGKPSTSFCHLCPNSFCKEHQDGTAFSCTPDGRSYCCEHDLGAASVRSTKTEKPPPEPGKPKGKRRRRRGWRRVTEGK
Type of test: biochemical.

In test [6] the target is Caspase-7 (Homo sapiens, UniProt P55210). Nature of the test: caspase-7 enzyme inhibition, selectivity check – biochemical, DEVD-R110 fluorescence, cherry-pick, selectivity assay for caspase-6 inhibitor project, dose response (AID 743295). Format: functional.
The target of test [7] is Voltage-gated inwardly rectifying potassium channel KCNH2 (Homo sapiens, UniProt Q12809). The conditions noted are these: Potency.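 Also: confirmatory quantitative high-throughput screen measuring inhibition of hERG channel activity.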
Test [8] addresses Major prion protein (Homo sapiens, UniProt P04156). Type of test: functional, cell-based.
Test [9] can be described thus: cells.
For test [10], the target named is T4, Caspase-3 (Homo sapiens, UniProt P42574).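 Also: Dose-response selectivity test against caspase-3 for candidate inhibitors of sentrin-specific proteases (SENPs).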
T4 sequence (P42574 whole entry): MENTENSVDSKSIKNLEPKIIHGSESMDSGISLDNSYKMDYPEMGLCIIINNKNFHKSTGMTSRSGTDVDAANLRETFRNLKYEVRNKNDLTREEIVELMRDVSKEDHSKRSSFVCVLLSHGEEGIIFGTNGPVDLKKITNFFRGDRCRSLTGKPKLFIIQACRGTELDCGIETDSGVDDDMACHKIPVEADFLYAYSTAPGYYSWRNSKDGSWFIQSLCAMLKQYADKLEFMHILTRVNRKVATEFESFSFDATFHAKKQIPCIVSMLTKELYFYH
Format: functional.

The target of test [11] is T5, Sentrin-specific protease 7 (Homo sapiens, UniProt Q9BQF6).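 Also: Luminescence-based dose-response confirmation of ultra-high-throughput screening hits, measuring inhibition of SENP7.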
T5 sequence (Q9BQF6 whole entry): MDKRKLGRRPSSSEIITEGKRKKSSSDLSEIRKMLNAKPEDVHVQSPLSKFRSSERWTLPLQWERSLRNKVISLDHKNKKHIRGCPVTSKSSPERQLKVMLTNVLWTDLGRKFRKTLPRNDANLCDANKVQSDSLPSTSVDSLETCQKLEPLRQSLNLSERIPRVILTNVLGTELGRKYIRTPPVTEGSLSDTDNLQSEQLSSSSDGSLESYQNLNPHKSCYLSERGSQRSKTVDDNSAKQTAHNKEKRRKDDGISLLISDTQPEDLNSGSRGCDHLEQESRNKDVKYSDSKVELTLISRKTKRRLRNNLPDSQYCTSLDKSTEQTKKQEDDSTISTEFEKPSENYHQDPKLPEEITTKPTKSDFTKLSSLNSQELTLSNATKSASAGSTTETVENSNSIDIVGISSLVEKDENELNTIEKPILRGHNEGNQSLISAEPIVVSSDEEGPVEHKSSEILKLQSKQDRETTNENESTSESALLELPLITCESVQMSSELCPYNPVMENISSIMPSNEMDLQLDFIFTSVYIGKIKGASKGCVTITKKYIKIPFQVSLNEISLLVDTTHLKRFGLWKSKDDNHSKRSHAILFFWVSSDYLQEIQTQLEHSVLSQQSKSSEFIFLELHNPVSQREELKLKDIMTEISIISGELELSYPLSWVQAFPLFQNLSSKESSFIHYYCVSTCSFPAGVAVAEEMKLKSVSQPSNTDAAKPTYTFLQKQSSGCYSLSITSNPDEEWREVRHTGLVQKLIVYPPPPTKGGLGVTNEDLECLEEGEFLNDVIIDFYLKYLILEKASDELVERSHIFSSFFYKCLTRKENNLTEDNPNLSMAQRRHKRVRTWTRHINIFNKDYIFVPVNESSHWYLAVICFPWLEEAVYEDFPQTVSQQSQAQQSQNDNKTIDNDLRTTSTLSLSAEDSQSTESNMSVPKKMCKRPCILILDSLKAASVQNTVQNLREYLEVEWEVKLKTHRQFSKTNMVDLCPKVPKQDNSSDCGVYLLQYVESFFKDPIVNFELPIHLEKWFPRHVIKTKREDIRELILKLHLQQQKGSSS
Type of test: functional.

Test [12] concerns the target T6, Sentrin-specific protease 6 (Homo sapiens, UniProt Q9GZR1).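 Also: Luminescence-based dose-response confirmatory assay of SENP6 inhibition, following up an ultra-high-throughput screen.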
T6 sequence (Q9GZR1 whole entry): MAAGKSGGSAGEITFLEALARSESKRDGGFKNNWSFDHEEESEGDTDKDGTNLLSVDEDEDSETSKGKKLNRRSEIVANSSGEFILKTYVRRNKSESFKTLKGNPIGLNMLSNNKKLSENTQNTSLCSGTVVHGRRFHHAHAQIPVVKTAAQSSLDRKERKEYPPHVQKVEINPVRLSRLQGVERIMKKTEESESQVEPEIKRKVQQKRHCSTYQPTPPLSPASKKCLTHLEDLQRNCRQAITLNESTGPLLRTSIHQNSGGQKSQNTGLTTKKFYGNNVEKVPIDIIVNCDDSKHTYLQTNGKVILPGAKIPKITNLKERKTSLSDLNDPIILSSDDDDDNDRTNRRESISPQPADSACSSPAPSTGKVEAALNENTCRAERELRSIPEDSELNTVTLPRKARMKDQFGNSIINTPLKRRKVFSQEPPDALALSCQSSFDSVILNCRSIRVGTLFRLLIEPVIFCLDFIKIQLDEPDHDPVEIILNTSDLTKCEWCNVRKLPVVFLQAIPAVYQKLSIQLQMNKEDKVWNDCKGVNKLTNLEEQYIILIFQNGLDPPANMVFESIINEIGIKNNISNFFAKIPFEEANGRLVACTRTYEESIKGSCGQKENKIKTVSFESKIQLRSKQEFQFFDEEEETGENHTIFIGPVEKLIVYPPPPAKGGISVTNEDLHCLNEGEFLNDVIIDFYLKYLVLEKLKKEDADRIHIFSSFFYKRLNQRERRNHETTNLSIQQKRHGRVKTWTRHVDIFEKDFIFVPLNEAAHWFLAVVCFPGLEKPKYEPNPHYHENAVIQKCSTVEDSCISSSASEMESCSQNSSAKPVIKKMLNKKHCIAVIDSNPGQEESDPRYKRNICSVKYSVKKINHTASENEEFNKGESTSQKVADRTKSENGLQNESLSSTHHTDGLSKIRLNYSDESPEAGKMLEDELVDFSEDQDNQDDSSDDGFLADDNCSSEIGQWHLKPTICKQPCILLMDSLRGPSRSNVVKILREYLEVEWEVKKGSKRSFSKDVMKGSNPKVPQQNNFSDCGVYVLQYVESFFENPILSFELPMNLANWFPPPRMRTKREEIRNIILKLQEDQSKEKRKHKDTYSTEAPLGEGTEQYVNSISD
Type of test: functional.

For test [13], the target named is T7, Sentrin-specific protease 8 (Homo sapiens, UniProt Q96LD8).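 Also: luminescence read-out of SENP8 inhibition, dose-response confirmation following an ultra-high-throughput screen.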
T7 sequence (Q96LD8 whole entry): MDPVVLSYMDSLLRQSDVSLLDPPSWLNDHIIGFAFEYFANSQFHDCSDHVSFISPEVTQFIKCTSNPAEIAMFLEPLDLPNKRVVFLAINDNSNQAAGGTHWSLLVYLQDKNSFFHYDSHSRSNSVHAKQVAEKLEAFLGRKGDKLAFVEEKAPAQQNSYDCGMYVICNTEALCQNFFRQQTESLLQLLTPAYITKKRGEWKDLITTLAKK
Type of test: functional.

Test [14] has as its target T8, Oxysterols receptor LXR-beta (Homo sapiens, UniProt P55055).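 Also: agonist activity at LXR measured by a cell-based luminescence readout across a dose range, run as a counterscreen for daf-12 agonists; HEK293 cells with Gal4-LXR fusion and GAL4-driven luciferase reporter; potency for activation of Gal4-LXR reporter so compounds are agonists.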
T8 sequence (P55055 whole entry): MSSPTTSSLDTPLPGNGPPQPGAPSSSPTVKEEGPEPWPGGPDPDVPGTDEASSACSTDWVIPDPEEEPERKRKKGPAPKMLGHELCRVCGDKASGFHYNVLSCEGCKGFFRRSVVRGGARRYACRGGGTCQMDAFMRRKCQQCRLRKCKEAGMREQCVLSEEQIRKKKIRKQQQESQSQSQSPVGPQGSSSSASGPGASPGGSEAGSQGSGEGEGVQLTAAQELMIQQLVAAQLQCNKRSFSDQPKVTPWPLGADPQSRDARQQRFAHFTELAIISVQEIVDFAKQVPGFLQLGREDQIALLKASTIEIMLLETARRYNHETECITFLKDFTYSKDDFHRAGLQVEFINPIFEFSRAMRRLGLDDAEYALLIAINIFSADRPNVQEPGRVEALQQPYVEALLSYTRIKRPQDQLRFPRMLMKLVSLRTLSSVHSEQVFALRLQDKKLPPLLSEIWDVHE
Format: functional, cell-based.

The source made the active and inactive calls.

For the molecule `Oc1cc2c(cc1O)[C@H]1c3ccc(O)c(O)c3OC[C@@]1(O)C2`, the IC50 was 67.6 µM (inactive) in test [1], 22.5 µM (active) in [2] and > 100 µM (inactive) in test [3]. Also, the AC50 in test [4] was 3.95 µM (active); in test [5], 1.53 µM (active); in test [6], 68.5 µM (active); in [7], 22.4 µM (inconclusive).
In the case of `COc1cccc(-c2cc3c(=O)n(-c4ccccc4)c(=S)[nH]c3s2)c1`, the values for the IC50 in test [8] and in [9] were 6.34 µM (active) and > 138 µM (inactive), respectively.
Regarding `Cc1ccc(/C=N/N=C/c2ccc(C)s2)s1`, the half-maximal inhibitory concentration (IC50) is 18.5 µM (active) in test [10], 5.6 µM (active) in test [11], 18.7 µM (active) in [12] and 21.9 µM (active) in [13]. The EC50 in test [14] was > 67.5 µM (inactive).
